How the values were obtained:
Format in all cases: cell-based
NOD1 = target: T1, NOD1 (Homo sapiens, UniProt Q9Y239); assay: NF-κB-dependent luciferase reporter assay, HEK293T cells expressing NOD1
T1 construct: expressed in transfected cells; host or cells: HEK293T
T1 sequence (Q9Y239 1-953): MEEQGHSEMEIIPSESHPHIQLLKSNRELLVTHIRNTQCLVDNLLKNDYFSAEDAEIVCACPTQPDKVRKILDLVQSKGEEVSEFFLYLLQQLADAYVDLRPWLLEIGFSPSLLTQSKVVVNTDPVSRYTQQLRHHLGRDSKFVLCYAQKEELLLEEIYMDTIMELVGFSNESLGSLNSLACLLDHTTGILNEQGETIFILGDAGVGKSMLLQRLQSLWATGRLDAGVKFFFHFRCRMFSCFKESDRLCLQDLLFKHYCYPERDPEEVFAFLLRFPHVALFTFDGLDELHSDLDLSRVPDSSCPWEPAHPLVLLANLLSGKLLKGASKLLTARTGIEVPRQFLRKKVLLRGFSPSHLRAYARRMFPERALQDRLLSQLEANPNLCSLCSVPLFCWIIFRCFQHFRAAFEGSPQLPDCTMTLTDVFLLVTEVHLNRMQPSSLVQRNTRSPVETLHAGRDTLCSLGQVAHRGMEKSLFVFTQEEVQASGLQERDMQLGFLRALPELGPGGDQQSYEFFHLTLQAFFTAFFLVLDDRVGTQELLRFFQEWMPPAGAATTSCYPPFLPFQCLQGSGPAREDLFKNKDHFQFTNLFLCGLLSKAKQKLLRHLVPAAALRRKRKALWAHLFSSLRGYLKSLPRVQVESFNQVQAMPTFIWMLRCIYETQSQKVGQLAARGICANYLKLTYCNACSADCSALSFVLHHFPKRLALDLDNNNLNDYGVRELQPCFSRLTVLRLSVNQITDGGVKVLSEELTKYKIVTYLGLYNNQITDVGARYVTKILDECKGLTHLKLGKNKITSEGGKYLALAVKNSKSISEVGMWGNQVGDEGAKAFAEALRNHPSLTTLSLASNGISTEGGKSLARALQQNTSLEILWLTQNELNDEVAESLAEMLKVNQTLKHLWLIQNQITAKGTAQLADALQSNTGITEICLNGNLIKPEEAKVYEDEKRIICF
Text: Reagents. LPS from S. typhimurium, intact and alkaline-detoxified LPS from E. coli O55:B5 as well as purified lipid A preparations of E. coli F583, MDP, DAP and dsRNA were obtained from Sigma-Aldrich (St. Louis, Mo.). PGN from S. aureus was from Fluka-Chemie (Buchs, Germany). Palmitoyl-Cys ((RS)-2,3-di(palmitoyloxy)-propyl)-Ala-Gly) (sBLP), was obtained from Bachem (Torrance, Calif.). The tetrameric form of the disaccharide dipeptide was described previously (Inohara et al., J. Biol. Chem. 278:5509 [2003]). iE-DAP and iQ-DAP, M3P and M4P were synthesized as described (Kitaura et al., J. Med. Chem. 25:335 [1982]) with small modification. Purification of PGN from B. subtilis 168 and C. flaccumfaciens with hydrolases, Cellosyl or recombinant AtlE (amidase domain) and the fractionation and purification of reduced B. subtilis PGN digested with Cellosyl were performed as previously described (Heilman et al., Mol. Microbiol. 24:1013 [1997]; Atrih et al., J. Bact. 181:3956 [1999]). Removal of proteins and reduction of LPS fraction. E. coli O55:B5 LPS (Sigma) was treated with proteinase K at 37° C. for 12 hr to digest contaminating proteins. To eliminate lipoproteins, LPS was subjected to modified phenol extraction with deoxycholate-containing phenol as described (Hirschfeld et al., J. Immunol. 165:618 [2000]). For reduction of carboxyl group in the LPS, the LPS was treated with 1-ethyl-3-(3-dimethylaminopropyl) carbodiimide and then reduced with NaBH4 as described (Taylor et al., Biochemistry 11:1383 [1972]). Preparation of E. coli extract. E. coli K-12 mutants were all based on the SØ864 genetic background (lacZ trp upp relA rpsL) (Neuhard and Thomassen, J. Bacteriol. 126:999). SØ874 carries a large chromosomal deletion removing the gene clusters for the biosynthesis of CA capsule and O-antigen. CLM5 is a derivative of SØ874 with a transposon insertion in the wecC gene that blocks the synthesis of ECA (Marolda et al., J. Bacteriol. 177:5539[1995]). FAM5 is a derivative of SØ874 carrying a deletion that eliminates the incorporation of heptose in the LPS core. Extracts were prepared from all of these E. coli K-12 strains and also from another E. coli K-12 strain, LCD27 YA21-6 (Obtained from Dr. Arisaka, Tokyo Institute of Technology). Bacteria were cultured overnight at 37° C. in Luria broth, killed by treatment with acetone followed by vacuum drying and finally resuspended in 10 mM HEPES. The extract was treated with 1M NaOH at 55° C. for 12 hr and neutralized with 1M HEPES (pH 7.4). The soluble fraction after centrifugation and filtration with 0.22 μm filter was applied to SUPEROSE 12 gel filtration column chromatography. Partial purification of NOD1-stimulatory molecules from E. coli and composition analyses. The amino acid composition of E. coli O55:B5 LPS was determined using AccQ·Tag amino acid analysis system (Waters, Milford, Mass.) after hydrolysis at 110° C. for 24 hr. For carbohydrate analysis, E coli K-12 YA21-6 (Ref 26) cultured overnight at 37° C. in L-broth were washed with TBS twice and incubated with TBS containing 1 mglml DNase I, RNase I and lysozyme for 37° C. for 2 hr. Acetone was added to the extracts at 50% final concentration and the insoluble fractions were washed with an excess of 75% and 100% acetone. After vacuum drying, the acetone extract was solublized with 1 M NaOH and incubated at 60° C. for 24 hr. The pH was adjusted to pH 5.0 with acetic acid and the soluble fraction was passed through SUPEROSE gel filtration column. SUPEROSE fractions with NOD1-stimulatory activity were diluted with 10 mM Tris-HCl (pH 8.8) and subjected to UnoQ column chromatography. The fractions were eluted with a linear gradient of 0–300 mM NaCl. The positive fractions were dialyzed against water and dried under vacuum. The monosaccharide composition of the fractions after TFA/methanol degradation was determined as previously described (Forsberg et al., J. Biol. Chem. 273:2747[1998]). Transfection and NF-κB Activation Assay. […]

NOD2 = target: T2, NOD2 (Homo sapiens, UniProt Q9HC29); assay: NF-κB-dependent luciferase reporter assay, HEK293T cells expressing NOD2
T2 construct: expressed in transfected cells; host or cells: HEK293T
Text: (§1) Reagents. LPS from S. typhimurium, intact and alkaline-detoxified LPS from E. coli O55:B5 as well as purified lipid A preparations of E. coli F583, MDP, DAP and dsRNA were obtained from Sigma-Aldrich (St. Louis, Mo.). PGN from S. aureus was from Fluka-Chemie (Buchs, Germany). Palmitoyl-Cys ((RS)-2,3-di(palmitoyloxy)-propyl)-Ala-Gly) (sBLP), was obtained from Bachem (Torrance, Calif.). The tetrameric form of the disaccharide dipeptide was described previously (Inohara et al., J. Biol. Chem. 278:5509 [2003]). iE-DAP and iQ-DAP, M3P and M4P were synthesized as described (Kitaura et al., J. Med. Chem. 25:335 [1982]) with small modification. Purification of PGN from B. subtilis 168 and C. flaccumfaciens with hydrolases, Cellosyl or recombinant AtlE (amidase domain) and the fractionation and purification of reduced B. subtilis PGN digested with Cellosyl were performed as previously described (Heilman et al., Mol. Microbiol. 24:1013 [1997]; Atrih et al., J. Bact. 181:3956 [1999]). Removal of proteins and reduction of LPS fraction. […] The amino acid composition of E. coli O55:B5 LPS was determined using AccQ·Tag amino acid analysis system (Waters, Milford, Mass.) after hydrolysis at 110° C. for 24 hr. […] The monosaccharide composition of the fractions after TFA/methanol degradation was determined as previously described (Forsberg et al., J. Biol. Chem. 273:2747[1998]). […]

TLR4/MD-2 = target: T3, TLR4/MD-2 (Homo sapiens, UniProt O00206+Q9Y6Y9); assay: NF-κB-dependent luciferase reporter assay, HEK293T cells expressing TLR4 with co-factor MD-2
T3 construct: expressed in transfected cells; host or cells: HEK293T
Text: as §1

T3 sequence (O00206 24-839, species assumed): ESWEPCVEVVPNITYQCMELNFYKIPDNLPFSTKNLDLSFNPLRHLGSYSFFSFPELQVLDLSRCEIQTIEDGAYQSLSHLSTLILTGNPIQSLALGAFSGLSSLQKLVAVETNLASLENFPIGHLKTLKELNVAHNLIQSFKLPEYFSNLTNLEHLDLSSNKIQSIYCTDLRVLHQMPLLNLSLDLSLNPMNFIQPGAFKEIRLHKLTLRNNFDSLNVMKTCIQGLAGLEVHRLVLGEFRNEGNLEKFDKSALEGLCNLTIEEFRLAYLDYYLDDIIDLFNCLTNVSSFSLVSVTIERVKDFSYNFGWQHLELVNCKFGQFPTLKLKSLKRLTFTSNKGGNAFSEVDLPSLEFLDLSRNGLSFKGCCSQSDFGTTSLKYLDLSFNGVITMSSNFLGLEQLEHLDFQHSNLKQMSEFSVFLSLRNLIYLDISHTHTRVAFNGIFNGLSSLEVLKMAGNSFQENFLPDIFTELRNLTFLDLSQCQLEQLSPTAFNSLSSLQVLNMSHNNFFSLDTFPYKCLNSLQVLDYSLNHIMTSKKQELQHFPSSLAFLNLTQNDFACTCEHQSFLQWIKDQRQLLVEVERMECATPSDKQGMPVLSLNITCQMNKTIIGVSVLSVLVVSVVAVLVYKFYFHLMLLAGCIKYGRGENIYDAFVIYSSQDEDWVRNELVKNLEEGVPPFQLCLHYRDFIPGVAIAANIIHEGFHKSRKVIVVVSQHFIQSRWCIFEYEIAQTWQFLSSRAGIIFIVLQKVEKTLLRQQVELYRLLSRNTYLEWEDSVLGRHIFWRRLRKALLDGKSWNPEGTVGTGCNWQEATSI
T3 sequence (Q9Y6Y9 19-160, species assumed): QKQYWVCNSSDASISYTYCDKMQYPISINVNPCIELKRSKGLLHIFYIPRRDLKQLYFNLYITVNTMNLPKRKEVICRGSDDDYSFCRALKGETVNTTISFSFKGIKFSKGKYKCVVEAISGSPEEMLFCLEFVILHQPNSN
T2 sequence (Q9HC29 whole entry): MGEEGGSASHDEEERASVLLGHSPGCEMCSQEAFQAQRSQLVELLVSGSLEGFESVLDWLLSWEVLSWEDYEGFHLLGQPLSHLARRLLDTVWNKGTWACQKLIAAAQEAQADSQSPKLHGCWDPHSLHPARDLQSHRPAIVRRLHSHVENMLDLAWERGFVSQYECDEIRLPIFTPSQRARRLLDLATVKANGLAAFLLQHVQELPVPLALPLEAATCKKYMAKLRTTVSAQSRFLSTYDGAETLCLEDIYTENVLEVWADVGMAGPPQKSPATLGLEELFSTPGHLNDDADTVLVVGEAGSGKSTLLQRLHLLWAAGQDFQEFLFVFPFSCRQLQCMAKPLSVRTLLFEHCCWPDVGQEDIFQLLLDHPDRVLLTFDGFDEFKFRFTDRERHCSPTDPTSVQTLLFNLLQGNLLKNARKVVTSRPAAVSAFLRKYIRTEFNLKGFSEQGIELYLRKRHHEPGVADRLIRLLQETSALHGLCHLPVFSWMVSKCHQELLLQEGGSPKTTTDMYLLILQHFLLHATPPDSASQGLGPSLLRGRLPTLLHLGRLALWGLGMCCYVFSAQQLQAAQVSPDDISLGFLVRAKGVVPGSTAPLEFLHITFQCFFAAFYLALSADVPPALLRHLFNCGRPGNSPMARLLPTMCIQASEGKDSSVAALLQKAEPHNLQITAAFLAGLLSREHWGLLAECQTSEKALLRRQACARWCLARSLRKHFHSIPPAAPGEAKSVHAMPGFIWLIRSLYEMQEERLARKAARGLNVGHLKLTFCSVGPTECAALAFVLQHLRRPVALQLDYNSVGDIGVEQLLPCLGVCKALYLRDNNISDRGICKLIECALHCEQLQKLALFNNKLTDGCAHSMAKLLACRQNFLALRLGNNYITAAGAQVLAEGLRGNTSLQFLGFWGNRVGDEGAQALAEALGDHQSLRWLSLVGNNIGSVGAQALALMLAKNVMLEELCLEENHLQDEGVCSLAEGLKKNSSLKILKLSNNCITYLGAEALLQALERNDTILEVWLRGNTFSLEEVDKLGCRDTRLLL

Compound | NOD1-dependent NF-κB activation (NOD1 stimulation) (NOD1) | NOD2-dependent NF-κB activation (NOD2) | TLR4/MD-2-dependent NF-κB activation (TLR4/MD-2)
N-acetylglucosamine(GlcNAc)-N-acetyl-Muramicitol-L-Ala-γ-D-Glu-meso-DAP [GM3p] | stimulated NOD1 in a dose-dependent manner | – | –
N[C@H](CCC[C@H](N)C(=O)O)C(=O)O [DAP, diaminopimelic acid] | unable to stimulate NOD1 | – | –
MurNAc-L-Ala-γ-D-Gln-L-Lys [M3P] | failed to stimulate NOD1 | – | –

The next lines start with the values.

NOD1-dependent NF-κB activation (NOD1 stimulation) (NOD1) | NOD2-dependent NF-κB activation (NOD2) | TLR4/MD-2-dependent NF-κB activation (TLR4/MD-2) | Compound
not NOD1 and NOD2 | not NOD1 and NOD2 | responded | lipid A
failed to stimulate NOD1 | – | – | MurNAc-L-Ala-γ-D-Gln-L-Lys-D-Ala [M4P]
